Assay results: ChEMBL document CHEMBL2073748, “Na(+)-dependent carnitine transport by organic cation transporter (OCTN2): its pharmacological and toxicological relevance” (J Pharmacol Exp Ther, 1999)
Non-standard residues stand in square brackets, D forms with d. Residues, ends and D or L forms follow the SMILES beside them. Sar = CNCC(=O)O

What was measured:
[1] = target: T1, Organic cation/carnitine transporter 2 (Homo sapiens, UniProt O76082); assay: TP_TRANSPORTER: inhibition of Carnitine uptake (Carnitine: 0.010? uM, Gly-Sar: 500 uM) in OCTN2-expressing HEK293 cells; format: functional, cell-based; details: hek293, 500 µM
T1 sequence (O76082 whole entry): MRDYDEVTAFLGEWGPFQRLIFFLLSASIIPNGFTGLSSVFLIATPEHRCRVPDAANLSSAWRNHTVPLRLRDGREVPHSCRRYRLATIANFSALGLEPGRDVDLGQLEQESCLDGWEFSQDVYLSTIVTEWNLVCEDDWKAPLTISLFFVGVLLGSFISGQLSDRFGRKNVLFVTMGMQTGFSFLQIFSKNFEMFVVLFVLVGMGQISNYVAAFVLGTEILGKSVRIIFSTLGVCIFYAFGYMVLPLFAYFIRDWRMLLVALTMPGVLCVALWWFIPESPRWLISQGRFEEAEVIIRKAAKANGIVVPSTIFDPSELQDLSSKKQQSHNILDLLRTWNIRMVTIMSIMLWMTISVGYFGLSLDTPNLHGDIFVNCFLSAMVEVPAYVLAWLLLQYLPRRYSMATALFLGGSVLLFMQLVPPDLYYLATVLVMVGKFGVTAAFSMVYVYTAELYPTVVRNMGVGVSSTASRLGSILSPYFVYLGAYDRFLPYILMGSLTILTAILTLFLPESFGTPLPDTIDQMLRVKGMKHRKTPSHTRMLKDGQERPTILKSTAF

[2] = target: T2, OCTN2 (organic cation/carnitine transporter 2) (Homo sapiens, UniProt O76082); assay: TP_TRANSPORTER: inhibition of Carnitine uptake (Carnitine: 0.010? uM, GPFX: 500 uM) in OCTN2-expressing HEK293 cells; format: functional, cell-based; design: scale not given: the % may be the effect or the level left; details: HEK293 cells that express OCTN2, probe Carnitine, read-out: Activity
T2 sequence (O76082 whole entry): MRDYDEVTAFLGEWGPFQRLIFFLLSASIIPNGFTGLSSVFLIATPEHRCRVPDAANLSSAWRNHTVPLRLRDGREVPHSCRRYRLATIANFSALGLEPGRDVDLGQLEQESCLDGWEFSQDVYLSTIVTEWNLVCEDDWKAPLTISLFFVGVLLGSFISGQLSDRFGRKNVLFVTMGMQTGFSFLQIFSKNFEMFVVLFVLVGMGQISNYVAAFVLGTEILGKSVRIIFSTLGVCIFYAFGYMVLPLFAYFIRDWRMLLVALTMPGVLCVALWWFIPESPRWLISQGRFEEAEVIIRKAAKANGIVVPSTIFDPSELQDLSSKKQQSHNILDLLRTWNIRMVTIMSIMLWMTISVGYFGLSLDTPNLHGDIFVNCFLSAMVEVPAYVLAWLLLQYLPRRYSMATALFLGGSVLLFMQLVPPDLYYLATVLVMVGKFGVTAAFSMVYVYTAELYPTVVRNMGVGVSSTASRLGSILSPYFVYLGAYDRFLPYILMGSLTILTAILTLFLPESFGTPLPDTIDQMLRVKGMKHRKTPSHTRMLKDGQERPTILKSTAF

[3] = target: T1, Organic cation/carnitine transporter 2; assay: TP_TRANSPORTER: inhibition of Carnitine uptake (Carnitine: 0.010? uM, Guanidine: 500 uM) in OCTN2-expressing HEK293 cells; format: functional, cell-based; details: hek293, 500 µM
[4] = target: T1, Organic cation/carnitine transporter 2; assay: (§1) TP_TRANSPORTER: uptake in OCTN2-expressing HEK293 cells; format: functional, cell-based
[5] = target: T2, OCTN2 (organic cation/carnitine transporter 2); assay: TP_TRANSPORTER: inhibition of Carnitine uptake (Carnitine: 0.010? uM, LFLX: 500 uM) in OCTN2-expressing HEK293 cells; format: functional, cell-based; design: scale not given: the % may be the effect or the level left; details: HEK293 cells that express OCTN2, probe Carnitine, read-out: Activity
[6] = target: T2, OCTN2 (organic cation/carnitine transporter 2); assay: in vitro; details: HEK293 cells that express OCTN2, probe Carnitine
Description: TP_TRANSPORTER: inhibition of Carnitine uptake (Carnitine: 0.010? uM, Nicotine: 500 uM) in OCTN2-expressing HEK293 cells

[7] = target: T2, OCTN2 (organic cation/carnitine transporter 2); assay: TP_TRANSPORTER: inhibition of Carnitine uptake (Carnitine: 0.010? uM, OFLX: 500 uM) in OCTN2-expressing HEK293 cells; format: functional, cell-based; design: scale not given: the % may be the effect or the level left; details: HEK293 cells that express OCTN2, probe Carnitine, read-out: Activity
[8] = target: T2, OCTN2 (organic cation/carnitine transporter 2); assay: TP_TRANSPORTER: inhibition of Carnitine uptake (Carnitine: 0.010? uM, Probenecid: 500 uM) in OCTN2-expressing HEK293 cells; format: functional, cell-based; design: scale not given: the % may be the effect or the level left; details: HEK293 cells that express OCTN2, probe Carnitine, read-out: Activity
[9] = target: T2, OCTN2 (organic cation/carnitine transporter 2); assay: TP_TRANSPORTER: inhibition of Carnitine uptake (Carnitine: 0.010? uM, Procainamide: 500 uM) in OCTN2-expressing HEK293 cells; format: functional, cell-based; design: scale not given: the % may be the effect or the level left; details: HEK293 cells that express OCTN2, probe Carnitine, read-out: Activity
[10] = target: T2, OCTN2 (organic cation/carnitine transporter 2); assay: TP_TRANSPORTER: inhibition of Carnitine uptake (Carnitine: 0.010? uM, Pyrilamine: 500 uM) in OCTN2-expressing HEK293 cells; format: functional, cell-based; design: scale not given: the % may be the effect or the level left; details: HEK293 cells that express OCTN2, probe Carnitine, read-out: Activity
[11] = target: T2, OCTN2 (organic cation/carnitine transporter 2); assay: TP_TRANSPORTER: inhibition of Carnitine uptake (Carnitine: 0.010? uM, Quinidine: 500 uM) in OCTN2-expressing HEK293 cells; format: functional, cell-based; design: scale not given: the % may be the effect or the level left; details: HEK293 cells that express OCTN2, probe Carnitine, read-out: Activity
[12] = target: T2, OCTN2 (organic cation/carnitine transporter 2); assay: TP_TRANSPORTER: inhibition of Carnitine uptake (Carnitine: 0.010? uM, Quinine: 500 uM) in OCTN2-expressing HEK293 cells; format: functional, cell-based; design: scale not given: the % may be the effect or the level left; details: HEK293 cells that express OCTN2, probe Carnitine, read-out: Activity
[13] = target: T2, OCTN2 (organic cation/carnitine transporter 2); assay: in vitro; details: HEK293 cells that express OCTN2, probe Carnitine; remark: listed apart in the source
Description: TP_TRANSPORTER: inhibition of Carnitine uptake (Carnitine: 0.010? uM, TEA: 500 uM) in OCTN2-expressing HEK293 cells

[14] = target: T2, OCTN2 (organic cation/carnitine transporter 2); assay: TP_TRANSPORTER: inhibition of Carnitine uptake (Carnitine: 0.010? uM, Trimethyllysine: 500 uM) in OCTN2-expressing HEK293 cells; format: functional, cell-based; design: scale not given: the % may be the effect or the level left; details: HEK293 cells that express OCTN2, probe Carnitine, read-out: Activity
[15] = target: T2, OCTN2 (organic cation/carnitine transporter 2); assay: TP_TRANSPORTER: inhibition of Carnitine uptake (Carnitine: 0.010? uM, Valproic acid: 500 uM) in OCTN2-expressing HEK293 cells; format: functional, cell-based; design: scale not given: the % may be the effect or the level left; details: HEK293 cells that express OCTN2, probe Carnitine, read-out: Activity
[16] = target: T2, OCTN2 (organic cation/carnitine transporter 2); assay: TP_TRANSPORTER: inhibition of Carnitine uptake (Carnitine: 0.010? uM, Verapamil: 500 uM) in OCTN2-expressing HEK293 cells; format: functional, cell-based; design: scale not given: the % may be the effect or the level left; details: HEK293 cells that express OCTN2, probe Carnitine, read-out: Activity
[17] = target: T1, Organic cation/carnitine transporter 2; assay: TP_TRANSPORTER: inhibition of Carnitine uptake (Carnitine: 0.010? uM, AZT: 500 uM) in OCTN2-expressing HEK293 cells; format: functional, cell-based; details: hek293, 500 µM
[18] = substrate: CC(=O)O[C@H](CC(=O)[O-])C[N+](C)(C)C; assay: as §1; format: functional, cell-based
[19] = substrate: C[N+](C)(C)CC(O)CC(=O)[O-]; assay: TP_TRANSPORTER: uptake, D-Carnitine in OCTN2-expressing HEK293 cells; format: functional, cell-based

CN(CC(=O)O)C(=O)CN [GLYCYLSARCOSINE] (H-Gly-[Sar]-OH)
Activity [1]: is not an inhibitor [-]

Cc1c(F)c(N2CCNC(C)C2)cc2c1c(=O)c(C(=O)O)cn2C1CC1 (centres undefined) [GREPAFLOXACIN]
activity at 500 µM [2]: 68.6%

N=C(N)N [GUANIDINE]
Activity [3]: is not an inhibitor [-]
Activity [4]: is not a substrate [-]

CCn1cc(C(=O)O)c(=O)c2cc(F)c(N3CCNC(C)C3)c(F)c21 (centres undefined) [LOMEFLOXACIN]
activity at 500 µM [5]: 88.6%

CN1CCC[C@H]1c1cccnc1 [NICOTINE]
activity at 500 µM [6]: 82.6%

CC1COc2c(N3CCN(C)CC3)c(F)cc3c(=O)c(C(=O)O)cn1c23 (centres undefined) [OFLOXACIN]
activity at 500 µM [7]: 76.8%

CCCN(CCC)S(=O)(=O)c1ccc(C(=O)O)cc1 [PROBENECID]
activity at 500 µM [8]: 77.4%

CCN(CC)CCNC(=O)c1ccc(N)cc1 [PROCAINAMIDE]
activity at 500 µM [9]: 65.8%

COc1ccc(CN(CCN(C)C)c2ccccn2)cc1 [PYRILAMINE]
activity at 500 µM [10]: 38.6%
Activity [4]: substrate [+]

C=C[C@H]1C[N@@]2CC[C@H]1C[C@@H]2[C@@H](O)c1ccnc2ccc(OC)cc12 [QUINIDINE]
activity at 500 µM [11]: 9.1%
Activity [4]: substrate [+]

C=C[C@H]1C[N@@]2CC[C@H]1C[C@H]2[C@H](O)c1ccnc2ccc(OC)cc12 [QUININE]
activity at 500 µM [12]: 7.1%

CC[N+](CC)(CC)CC [TETRYLAMMONIUM]
activity at 500 µM [13]: 53.6%
Activity [4]: substrate [+]

C[N+](C)(C)CCCC[C@H](N)C(=O)O [TRIMETHYLLYSINE]
activity at 500 µM [14]: 69%

CCCC(CCC)C(=O)O [VALPROIC ACID]
activity at 500 µM [15]: 82.3%
Activity [4]: substrate [+]

COc1ccc(CCN(C)CCCC(C#N)(c2ccc(OC)c(OC)c2)C(C)C)cc1OC (centres undefined) [VERAPAMIL]
activity at 500 µM [16]: 2.4%
Activity [4]: substrate [+]

Cc1cn([C@H]2C[C@H](N=[N+]=[N-])[C@@H](CO)O2)c(=O)[nH]c1=O [ZIDOVUDINE]
Activity [17]: is not an inhibitor [-]

B1: Organic cation/carnitine transporter 2 (Homo sapiens) (protein)
chain: MRDYDEVTAFLGEWGPFQRLIFFLLSASIIPNGFTGLSSVFLIATPEHRCRVPDAANLSSAWRNHTVPLRLRDGREVPHSCRRYRLATIANFSALGLEPGRDVDLGQLEQESCLDGWEFSQDVYLSTIVTEWNLVCEDDWKAPLTISLFFVGVLLGSFISGQLSDRFGRKNVLFVTMGMQTGFSFLQIFSKNFEMFVVLFVLVGMGQISNYVAAFVLGTEILGKSVRIIFSTLGVCIFYAFGYMVLPLFAYFIRDWRMLLVALTMPGVLCVALWWFIPESPRWLISQGRFEEAEVIIRKAAKANGIVVPSTIFDPSELQDLSSKKQQSHNILDLLRTWNIRMVTIMSIMLWMTISVGYFGLSLDTPNLHGDIFVNCFLSAMVEVPAYVLAWLLLQYLPRRYSMATALFLGGSVLLFMQLVPPDLYYLATVLVMVGKFGVTAAFSMVYVYTAELYPTVVRNMGVGVSSTASRLGSILSPYFVYLGAYDRFLPYILMGSLTILTAILTLFLPESFGTPLPDTIDQMLRVKGMKHRKTPSHTRMLKDGQERPTILKSTAF
Km [18]: 8.5 µM
Km [19]: 10.9 µM
